We go through one compound from PMC4965473 (Frontiers in Physiology, 2016).

Where a name gives a salt, the structure may show the parent alone.

Assay [1] deals with wt M2TMD21−49. Set-up: species or system influenza A.
The test system of assay [2] is M2 transmembrane domain (M2TMD). To be noted: cited from earlier work.

Turning to `NC12CC3CC(CC(C3)C1)C2` [amantadine, amantadine hydrochloride], the “effect of longer incubation with amantadine on DEER data” value in assay [1] is recorded as “did not produce any additional effect on the DEER data”. In addition, in assay [1] (pH 5.5), the “effect of amantadine on DEER distances” value is on record as “do not change upon the addition of 2 mM amantadine” and the “effect of amantadine on DEER signal / modulation depth” value is “almost negligible”. In assay [2], the “binding affinity of amantadine versus pH” value is recorded as “Increased binding affinity of amantadine at neutral or basic pH, compared to acidic pH” and the “effect of amantadine on M2TMD tetramer” value was “stabilizing effect of amantadine on M2TMD tetramer”.
